These results are taken from patent US12595253B2, “Benzamides of pyrazolylamino-pyrimidinyl derivatives, and compositions and methods thereof” (LYNK PHARMACEUTICALS CO. LTD., priority 2019, dated 2026).

In general, IC50 refers to the point on the concentration scale where inhibition reaches its midpoint.

Format in all cases: biochemical
One experiment addresses T1, TYK2 (Homo sapiens, UniProt P29597).
T1 construct: purchased Carna Biosciences
The experiment is described as follows: TYK2 microfluidic kinase assay (Caliper EZ Reader II, FAM labeled peptide substrate). The settings on record: IC50 TYK2 ([…]) (1 mM ATP), TYK2 […], 1 mM ATP. In a few lines:
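Assay run at ~10% substrate conversion in 50 mM HEPES pH buffer with Brij35, MgCl2 and DTT; compounds tested up to 5 μM in 3-fold dilutions at 1% DMSO. JAK1 reacted 120 min, JAK2 20 min, JAK2V617F 30 min, TYK2 10 min before an EDTA stop.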

The target in another experiment is T2, JAK1 (Homo sapiens, UniProt P23458).
T2 construct: purchased Carna Biosciences
T2 sequence (P23458 whole entry): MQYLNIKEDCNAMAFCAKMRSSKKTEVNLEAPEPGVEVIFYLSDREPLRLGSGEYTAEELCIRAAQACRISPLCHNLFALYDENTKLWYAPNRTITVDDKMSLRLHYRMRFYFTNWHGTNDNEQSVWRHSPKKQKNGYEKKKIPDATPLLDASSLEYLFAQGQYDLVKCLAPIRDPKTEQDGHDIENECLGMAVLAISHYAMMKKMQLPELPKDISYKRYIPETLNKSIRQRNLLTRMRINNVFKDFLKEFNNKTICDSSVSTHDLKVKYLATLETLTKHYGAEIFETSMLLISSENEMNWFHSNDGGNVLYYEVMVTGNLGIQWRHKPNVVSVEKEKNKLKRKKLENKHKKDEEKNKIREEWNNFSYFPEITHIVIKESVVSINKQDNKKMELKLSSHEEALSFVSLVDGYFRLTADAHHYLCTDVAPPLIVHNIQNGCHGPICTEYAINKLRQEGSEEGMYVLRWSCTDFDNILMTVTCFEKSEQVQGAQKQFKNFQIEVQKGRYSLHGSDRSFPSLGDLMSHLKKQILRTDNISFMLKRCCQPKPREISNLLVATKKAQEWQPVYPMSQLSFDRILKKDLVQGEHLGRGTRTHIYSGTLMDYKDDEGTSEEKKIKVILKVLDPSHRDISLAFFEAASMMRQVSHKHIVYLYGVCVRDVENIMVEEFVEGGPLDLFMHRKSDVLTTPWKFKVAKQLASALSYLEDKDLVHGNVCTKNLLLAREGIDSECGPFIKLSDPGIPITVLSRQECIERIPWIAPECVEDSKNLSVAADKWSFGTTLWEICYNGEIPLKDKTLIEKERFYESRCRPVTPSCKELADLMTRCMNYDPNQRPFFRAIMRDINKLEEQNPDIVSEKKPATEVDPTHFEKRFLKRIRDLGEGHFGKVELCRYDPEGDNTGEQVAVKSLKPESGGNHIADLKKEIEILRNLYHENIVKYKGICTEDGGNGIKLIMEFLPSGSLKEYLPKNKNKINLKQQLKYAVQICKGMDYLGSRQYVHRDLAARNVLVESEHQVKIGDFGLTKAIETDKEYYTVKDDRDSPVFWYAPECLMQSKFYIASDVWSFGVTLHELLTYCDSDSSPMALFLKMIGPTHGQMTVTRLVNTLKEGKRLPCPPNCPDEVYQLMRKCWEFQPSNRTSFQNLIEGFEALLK
The experiment is described as follows: JAK1 microfluidic kinase assay (Caliper EZ Reader II, FAM labeled peptide substrate). In a few lines:
(§1)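 Activity measured in 50 mM HEPES, 0.01% Brij35, 10 mM MgCl2, 2 mM DTT by microfluidic separation of phosphorylated FAM peptide. Enzyme conditions set for 10% substrate conversion.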

In the next experiment the target is T3, FLT3 (Homo sapiens, UniProt P36888).
T3 construct: purchased Carna Biosciences
T3 sequence (P36888 27-993): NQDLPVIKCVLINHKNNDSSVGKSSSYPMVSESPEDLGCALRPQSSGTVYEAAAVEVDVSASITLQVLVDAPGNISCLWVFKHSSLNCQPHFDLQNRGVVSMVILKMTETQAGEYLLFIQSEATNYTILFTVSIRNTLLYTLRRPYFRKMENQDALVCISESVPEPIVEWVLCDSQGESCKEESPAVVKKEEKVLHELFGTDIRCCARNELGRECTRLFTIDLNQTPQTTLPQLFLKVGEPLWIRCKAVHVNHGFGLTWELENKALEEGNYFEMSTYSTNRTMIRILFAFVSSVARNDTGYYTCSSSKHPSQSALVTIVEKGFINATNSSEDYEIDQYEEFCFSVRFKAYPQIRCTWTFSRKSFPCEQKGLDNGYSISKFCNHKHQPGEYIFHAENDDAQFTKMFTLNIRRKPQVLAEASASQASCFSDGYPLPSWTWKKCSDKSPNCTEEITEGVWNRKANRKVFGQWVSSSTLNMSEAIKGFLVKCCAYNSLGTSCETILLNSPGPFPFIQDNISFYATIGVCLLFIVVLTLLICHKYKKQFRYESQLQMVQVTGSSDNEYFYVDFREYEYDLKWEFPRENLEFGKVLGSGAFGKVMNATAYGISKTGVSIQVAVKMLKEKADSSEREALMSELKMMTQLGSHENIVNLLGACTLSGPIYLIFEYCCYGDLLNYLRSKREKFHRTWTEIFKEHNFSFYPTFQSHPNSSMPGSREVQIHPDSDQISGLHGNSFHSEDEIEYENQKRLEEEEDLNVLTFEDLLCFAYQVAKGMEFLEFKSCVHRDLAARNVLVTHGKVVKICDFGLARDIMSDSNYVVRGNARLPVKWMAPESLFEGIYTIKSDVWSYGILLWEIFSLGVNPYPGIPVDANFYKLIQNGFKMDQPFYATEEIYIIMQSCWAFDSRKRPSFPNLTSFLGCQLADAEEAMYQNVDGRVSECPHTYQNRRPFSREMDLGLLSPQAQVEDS
In words: FLT3 microfluidic kinase assay. The method, then:
Compounds were tested against FLT3, FLT3ITD and FLT3D835Y.
Assay Formats: FLT3 activity was determined in the reaction buffer 50 mM HEPES, 10 mM MgCl2 and 2 mM DTT by a microfluidic assay. The phosphorylation of a FAM labeled peptide substrate was monitored in the Caliper EZ Reader II (Perkin Elmer). The assay condition for each batch of enzyme (Carna Biosciences) was optimized to obtain 10% conversion rate of peptide substrate.
The test compounds were dissolved in DMSO to a stock concentration of 10 mM. 3-fold serially diluted compounds with top concentration of 5 μM were pre-incubated with FLT3, FLT3ITD or FLT3D835Y for 10 min at ambient temperature. The final DMSO concentration of assay mixture was 1%. […] The reaction was stopped by adding 50 mM EITA. The reaction time for FLT3, FLT3ITD and FLT3D8335Y was 30 min, 40 min and 40 min, respectively.
And the well without compound but with equivalent DMSO was defined as no inhibition. The percent inhibition was calculated by the following formula. % Inhibition=(Conversionmax−Conversionsample)/(Conversionmax−Conversionmin)*100 • Conversionmax means the conversion rate in the positive well without addition of compound • Conversionmin means the conversion rate in the well without addition of enzyme • Conversionsample means the conversion rate of test compounds
The dose-response (percent inhibition) curve was plotted and IC50 values were determined by GraphPad software.

The target of the next experiment is T4, JAK2 (Homo sapiens, UniProt O60674).
T4 construct: purchased Carna Biosciences
T4 sequence (O60674 whole entry): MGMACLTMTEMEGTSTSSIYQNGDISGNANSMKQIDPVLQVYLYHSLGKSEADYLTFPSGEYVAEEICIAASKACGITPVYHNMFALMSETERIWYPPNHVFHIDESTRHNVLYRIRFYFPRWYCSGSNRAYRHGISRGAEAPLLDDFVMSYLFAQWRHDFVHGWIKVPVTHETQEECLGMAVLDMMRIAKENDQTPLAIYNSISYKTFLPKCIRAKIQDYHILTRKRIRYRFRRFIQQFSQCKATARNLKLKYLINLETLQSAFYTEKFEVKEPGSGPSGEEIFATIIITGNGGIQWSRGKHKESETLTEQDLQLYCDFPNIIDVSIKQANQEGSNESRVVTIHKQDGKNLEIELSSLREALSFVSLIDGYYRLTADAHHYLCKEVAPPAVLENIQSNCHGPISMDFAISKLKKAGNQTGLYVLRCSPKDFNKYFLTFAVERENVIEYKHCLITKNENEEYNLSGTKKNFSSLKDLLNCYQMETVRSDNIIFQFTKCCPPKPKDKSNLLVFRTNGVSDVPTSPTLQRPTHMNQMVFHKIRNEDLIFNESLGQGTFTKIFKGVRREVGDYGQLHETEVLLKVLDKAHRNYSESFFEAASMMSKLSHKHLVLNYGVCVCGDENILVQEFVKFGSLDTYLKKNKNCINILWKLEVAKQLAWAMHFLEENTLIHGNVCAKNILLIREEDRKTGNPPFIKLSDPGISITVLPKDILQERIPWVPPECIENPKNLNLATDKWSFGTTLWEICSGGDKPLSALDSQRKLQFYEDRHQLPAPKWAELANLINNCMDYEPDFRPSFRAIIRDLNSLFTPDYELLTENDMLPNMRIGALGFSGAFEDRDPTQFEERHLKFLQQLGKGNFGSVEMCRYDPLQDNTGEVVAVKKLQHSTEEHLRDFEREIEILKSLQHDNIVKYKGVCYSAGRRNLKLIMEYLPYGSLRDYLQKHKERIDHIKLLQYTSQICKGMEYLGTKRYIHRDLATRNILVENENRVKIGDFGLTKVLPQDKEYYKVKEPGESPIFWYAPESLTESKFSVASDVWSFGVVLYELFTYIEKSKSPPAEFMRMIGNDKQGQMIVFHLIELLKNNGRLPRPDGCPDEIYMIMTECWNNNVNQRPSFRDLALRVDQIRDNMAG
The experiment is described as follows: JAK2 microfluidic kinase assay (Caliper EZ Reader II, FAM labeled peptide substrate). Summed up:
as §1

The mark [1] stands for this setting: IC50 JAK1 (5 nM) (1 m MATP), JAK1 5 nM, 1 mM ATP.
[2] abbreviates: IC50 JAK2 ([…]) (1 mM ATP), 1 mM ATP.
[3] abbreviates: IC50 JAK2 ([…]) (Km ATP), Km ATP.
Where [4] appears, read: IC50 JAK1 (10 nM) (Km ATP), JAK1 10 nM, Km ATP.

Read-outs that look alike come from different tables or passages of the source.

T1 sequence (P29597 whole entry): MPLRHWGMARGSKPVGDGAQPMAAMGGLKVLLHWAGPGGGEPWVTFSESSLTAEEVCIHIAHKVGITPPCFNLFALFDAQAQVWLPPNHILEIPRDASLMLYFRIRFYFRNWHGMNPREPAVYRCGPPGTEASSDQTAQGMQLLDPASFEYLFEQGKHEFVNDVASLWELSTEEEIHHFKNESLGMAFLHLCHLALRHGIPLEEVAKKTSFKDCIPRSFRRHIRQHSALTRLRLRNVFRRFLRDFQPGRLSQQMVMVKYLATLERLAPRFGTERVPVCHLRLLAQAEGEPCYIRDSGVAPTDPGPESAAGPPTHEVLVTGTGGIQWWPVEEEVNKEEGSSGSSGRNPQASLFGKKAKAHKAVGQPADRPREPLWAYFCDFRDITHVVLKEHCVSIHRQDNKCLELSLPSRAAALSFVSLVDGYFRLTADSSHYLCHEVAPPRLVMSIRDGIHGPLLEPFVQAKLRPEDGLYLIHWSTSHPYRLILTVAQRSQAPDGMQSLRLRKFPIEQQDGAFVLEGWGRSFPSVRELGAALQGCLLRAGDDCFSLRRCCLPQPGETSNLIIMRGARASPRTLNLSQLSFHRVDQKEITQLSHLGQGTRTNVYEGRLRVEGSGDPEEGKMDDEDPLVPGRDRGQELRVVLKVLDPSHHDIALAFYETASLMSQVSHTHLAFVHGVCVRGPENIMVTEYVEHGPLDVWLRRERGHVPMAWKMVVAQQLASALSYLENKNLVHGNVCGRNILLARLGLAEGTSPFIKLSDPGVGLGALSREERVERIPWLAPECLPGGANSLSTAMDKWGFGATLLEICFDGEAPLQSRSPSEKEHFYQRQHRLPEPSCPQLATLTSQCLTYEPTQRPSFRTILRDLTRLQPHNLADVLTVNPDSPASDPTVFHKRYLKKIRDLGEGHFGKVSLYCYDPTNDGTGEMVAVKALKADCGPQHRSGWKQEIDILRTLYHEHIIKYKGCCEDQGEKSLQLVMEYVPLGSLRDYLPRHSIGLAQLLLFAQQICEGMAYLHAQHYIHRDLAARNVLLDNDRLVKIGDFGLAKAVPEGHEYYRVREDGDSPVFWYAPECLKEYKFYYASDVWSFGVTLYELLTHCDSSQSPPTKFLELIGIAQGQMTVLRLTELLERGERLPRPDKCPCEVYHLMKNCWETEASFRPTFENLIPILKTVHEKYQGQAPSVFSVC

With `Cn1cc(Nc2ncc(Cl)c(-c3ccc(C(=O)NCC#N)cc3)n2)cn1` [Example 34, 4-(5-Chloro-2-((1-methyl-1H-pyrazol-4-yl)amino)pyrimidin-4-yl)-N-(cyanomethyl)benzamide], the concentration for half-maximal inhibition (IC50) against TYK2 was 98.4 nM; against JAK1 (setting [1]), 11.8 nM; on FLT3, 10.9 nM; on JAK2 (setting [2]) it was 24.4 nM; against JAK2 (setting [3]), 0.7 nM.

With `CC[C@@H](C#N)NC(=O)c1ccc(-c2nc(Nc3cnn(C4CC4)c3)ncc2Cl)cc1` [Example 61, (S)-4-(5-chloro-2-((1-cyclopropyl-1H-pyrazol-4-yl)amino)pyrimidin-4-yl)-N-(1-cyanopropyl)benzamide], the IC50 against TYK2 stood at 52.8 nM; at JAK1 (setting [1]), 5.81 nM; at FLT3, 3.36 nM; on JAK2 (setting [2]), 4.73 nM.

Turning to `CCNC(=O)c1ccc(-c2nc(Nc3cnn(C)c3)ncc2C)cc1` [Example 222, N-ethyl-4-(5-methyl-2-((1-methyl-1H-pyrazol-4-yl)amino)pyrimidin-4-yl)benzamide], the IC50 against TYK2 is above 5000 nM; against JAK1 (setting [1]), above 5000 nM; at JAK1 (setting [4]), 1890 nM; against FLT3, 1890 nM; on JAK2 (setting [2]), 4520 nM; against JAK2 (setting [3]) it was 149 nM.

Regarding `CC[C@@H](C#N)NC(=O)c1ccc(-c2nc(Nc3cnn(C4CCN(C)CC4)c3)ncc2C)cc1` [Example 184, (S)—N-(1-Cyanopropyl)-4-(5-methyl-2-((1-(1-methylpiperidin-4-yl)-1H-pyrazol-4-yl)amino)pyrimidin-4-yl)benzamide], the IC50 is 1.34 nM at TYK2, 0.61 nM at JAK1 (setting [1]) and 0.37 nM against JAK2 (setting [2]).

For `CC[C@@H](C#N)NC(=O)c1ccc(-c2nc(Nc3cnn(C4CCNCC4)c3)ncc2Cl)cc1` [Example 183, (S)-4-(5-chloro-2-((1-(piperidin-4-yl)-1H-pyrazol-4-yl)amino)pyrimidin-4-yl)-N-(1-cyanopropyl)benzamide], the values for the IC50 on TYK2, against JAK1 (setting [1]) and against JAK2 (setting [2]) were 2.29 nM, 1.95 nM and 0.42 nM, respectively.

On to `C[C@@H](C#N)NC(=O)c1ccc(-c2nc(Nc3cnn(C4CC4)c3)ncc2Cl)cc1` [Example 111, (S)-4-(5-Chloro-2-((1-cyclopropyl-1H-pyrazol-4-yl)amino)pyrimidin-4-yl)-N-(1-cyanoethyl)benzamide], for which the IC50 on TYK2 was determined as 43.3 nM; on JAK1 (setting [1]) it was 8.64 nM; at FLT3 it was 6.73 nM; on JAK2 (setting [2]), 2.79 nM.

For `Cc1cnc(Nc2cnn(C3CC(C)(C)OC(C)(C)C3)c2)nc1-c1ccc(C(=O)NCC#N)cc1` [Example 113, N-(cyanomethyl)-4-(5-methyl-2-((1-(2,2,6,6-tetramethyltetrahydro-2H-pyran-4-yl)-1H-pyrazol-4-yl)amino)pyrimidin-4-yl)benzamide], the concentration for half-maximal inhibition (IC50) is 1.66 nM on TYK2; 10.4 nM on JAK1 (read-out: IC50 JAK1 (5 nM) (1 m MATP), JAK1 5 nM, 1 mM ATP); below 0.25 nM at JAK2 (setting [2]).

Consider `C[C@@H](C#N)NC(=O)c1ccc(-c2nc(Nc3cnn(C4CCNCC4)c3)ncc2Cl)cc1` [Example 165, (S)-4-(5-chloro-2-((1-(piperidin-4-yl)-1H-pyrazol-4-yl)amino)pyrimidin-4-yl)-N-(1-cyanoethyl)benzamide], for which the IC50 against TYK2 worked out at 65 nM; at JAK1 (setting [1]), 5.94 nM; against JAK2 (setting [2]) it was 1.16 nM.

`Cc1cnc(Nc2cnn(C3CCN(C(=O)CO)CC3)c2)nc1-c1ccc(C(=O)N[C@@H](C)C#N)cc1` [Example 119, (S)—N-(1-cyanoethyl)-4-(2-((1-(1-(2-hydroxyacetyl)piperidin-4-yl)-1H-pyrazol-4-yl)amino)-5-methylpyrimidin-4-yl)benzamide]: the 50% inhibitory concentration (IC50) at TYK2 was 5.15 nM; against JAK1 (setting [1]), 8.45 nM; against JAK2 (setting [2]), below 0.25 nM.

In the case of `C[C@@H](C#N)NC(=O)c1ccc(-c2nc(Nc3cnn(C4CCN(C)CC4)c3)ncc2Cl)cc1` [Example 43, (S)-4-(5-Chloro-2-((1-(1-methylpiperidin-4-yl)-1H-pyrazol-4-yl)amino)pyrimidin-4-yl)-N-(1-cyanoethyl)benzamide], the IC50 amounted to 29 nM at TYK2, 11.2 nM on JAK1 (setting [1]) and 0.57 nM against JAK2 (setting [2]).

As to `Cc1cnc(Nc2cnn(CC#N)c2)nc1-c1ccc(C(=O)NCC#N)cc1` [Example 4, N-(Cyanomethyl)-4-(2-((1-(cyanomethyl)-1H-pyrazol-4-yl)amino)-5-methylpyrimidin-4-yl)benzamide], the IC50 worked out at 62.9 nM against TYK2; 8.75 nM against JAK1 (setting [1]); 1.73 nM at JAK1 (setting [4]); 43 nM on JAK2 (setting [2]); 2.04 nM on JAK2 (setting [3]).

With `Cc1cnc(Nc2cnn(C)c2)nc1-c1ccc(C(=O)NC(C)C)cc1` [Example 223, N-isopropyl-4-(5-methyl-2-((1-methyl-1H-pyrazol-4-yl)amino)pyrimidin-4-yl)benzamide], the half-maximal inhibitory concentration (IC50) at TYK2 is above 5000 nM; at JAK1 (setting [1]), 3940 nM; at FLT3, 1100 nM; on JAK2 (setting [2]), 1450 nM.

`N#CCNC(=O)c1ccc(-c2nc(Nc3cnn(C4CC4)c3)ncc2Cl)cc1` [Example 95, 4-(5-Chloro-2-((1-cyclopropyl-1H-pyrazol-4-yl)amino)pyrimidin-4-yl)-N-(cyanomethyl)benzamide]: the 50% inhibitory concentration (IC50) on TYK2 worked out at 58.9 nM; against JAK1 (setting [1]), 7.29 nM; at FLT3, 5.35 nM; on JAK2 (setting [2]) it was 4.48 nM.

Turning to `CNC(=O)c1ccc(-c2nc(Nc3cnn(C)c3)ncc2C)cc1` [Example 10, N-Methyl-4-(5-methyl-2-((1-methyl-1H-pyrazol-4-yl)amino)pyrimidin-4-yl)benzamide], the half-maximal inhibitory concentration (IC50) on TYK2 was above 5000 nM; against JAK1 (setting [1]), above 5000 nM; at FLT3, 1200 nM; against JAK2 (setting [2]), above 5000 nM; against JAK2 (setting [3]), 30 nM.

Consider `C[C@@H](C#N)NC(=O)c1ccc(-c2nc(Nc3cnn(C)c3)ncc2Cl)cc1` [Example 125, (S)-4-(5-chloro-2-((1-methyl-1H-pyrazol-4-yl)amino)pyrimidin-4-yl)-N-(1-cyanoethyl)benzamide], for which the IC50 against TYK2 was 146 nM; against JAK1 (setting [1]), 18.9 nM; on FLT3 it was 23.6 nM; on JAK2 (setting [2]) it was 41.2 nM; against JAK2 (setting [3]), 1.48 nM.
